In PMC9780888, “4-Isobutylmethcathinone—A Novel Synthetic Cathinone with High In Vitro Cytotoxicity and Strong Receptor Binding Preference of Enantiomers” (Pharmaceuticals, 2022):
Structures can show the parent of a compound that is named as a salt.

Experiments:
Assay type in all cases: cell-based, human
[1] = system: CaCo-2; experiment: WST-1 viability assay, CaCo-2 cells; details: CaCo-2, 72 h incubation, WST-1, four replicates
Protocol: (§1) Based on the novelty of the IMBcat compound, we aimed to evaluate its in vitro cytotoxicity in selected model cell lines as well as to determine the toxicity of the IBMcat enantiomers, since both the chemical structure and chirality of compounds could play a role in their bioactivity (Table 2). The cytotoxic profile of the IBMcat was determined by a WST-1 viability assay after 72-h treatment. For this purpose, cell lines derived from distinct tissues, often affected by NPSs, were chosen, i.e., cells of kidney, hepatic, neural, urinary, and intestinal origin as well as keratinocytes and primary fibroblasts (HEK 293T, Hep G2, HMC-3, SH-SY5Y, 5637, CaCo-2, HaCaT, MRC-5, and BJ, respectively). The cytotoxicity of IBMcat and its enantiomers was concentration- and cell-line dependent, the IC50 values, which were in the micromolar range, are given in Table 2. […] This was followed by embryonic kidney cells HEK 293T (immortalized), in which the toxicity ranged between a concentration of 123 and 192 µM.
(§2) In this study, the following cell lines were used: HEK 293T, Hep G2, HMC-3, SH-SY5Y, 5637, CaCo-2, HaCaT, MRC-5, BJ, and L929. […] The selected cell lines were chosen so that not only primary noncancerous cells are evaluated but also cells derived from tissues, which are the most often affected by novel synthetic drugs, i.e., kidney, liver, urinary bladder, and nervous tissue. […]
(§3) The cytotoxicity of IBMCat was evaluated in vitro by using a WST-1 viability assay (Sigma-Aldrich, Saint Louis, MO, USA) based on the transformation of a tetrazolium salt into colored formazan in metabolically active cells. […] After 72 h of additional incubation of the cells, their viability was determined by WST-1. […] The cells were incubated for 2 h, after which absorbance of the raised formazan was measured spectrophotometrically at 450 nm (reference wavelength of 630 nm) using a UV-Vis spectrometer (Bio-Rad Laboratories, Hercules, CA, USA). […] The half-maximal inhibitory concentrations (IC50) were calculated from the measured dose–response curves by AAT Bioquest.

[2] = system: Hep G2; experiment: WST-1 viability assay, Hep G2 cells; details: Hep G2, 72 h incubation, WST-1, four replicates
Protocol: as §1, §2, §3

[3] = system: HaCaT; experiment: WST-1 viability assay, HaCaT cells; details: 72 h incubation, WST-1, four replicates
Protocol: as §1, §2, §3

[4] = system: MRC-5; experiment: WST-1 viability assay, MRC-5 cells; details: MRC-5, 72 h incubation, WST-1, four replicates
Protocol: as §1, §2, §3

[5] = system: BJ; experiment: WST-1 viability assay, BJ cells; details: 72 h incubation, WST-1, four replicates
Protocol: as §1, §2, §3

[6] = system: 5637; experiment: WST-1 viability assay, 5637 cells; details: 5637, 72 h incubation, WST-1, four replicates
Protocol: as §1, §2, §3

[7] = system: SH-SY5Y; experiment: WST-1 viability assay, SH-SY5Y cells; details: 72 h incubation, WST-1, four replicates
Protocol: as §1, §2, §3

CNC(C)C(=O)c1ccc(CC(C)C)cc1.Cl (stereo not drawn) [IBMcat, 4-isobutylmethcathinone hydrochloride] gave an IC50 ([1]; Homo sapiens) of 389 ± 42 µM, an IC50 ([2]; Homo sapiens, HepG2) of 52 ± 7 µM and an IC50 ([3]; Homo sapiens) of 357 ± 40 µM. The IC50 ([4]; Homo sapiens, MRC5) was 635 ± 17 µM, the IC50 ([5]; Homo sapiens) was 749 ± 102 µM and the IC50 ([6]; Homo sapiens) was 18 ± 1 µM. The IC50 ([7]; Homo sapiens) was 44 ± 5 µM.

CN[C@@H](C)C(=O)c1ccc(CC(C)C)cc1 [S-IBMCat, (S)-4-isobutylmethcathinone hydrochloride] was tested, and the IC50 ([1]; Homo sapiens) was 390 ± 17 µM, the IC50 ([2]; Homo sapiens, HepG2) was 46 ± 9 µM and the IC50 ([3]; Homo sapiens) was 361 ± 22 µM. It also gave an IC50 ([4]; Homo sapiens, MRC5) of 530 ± 35 µM, an IC50 ([5]; Homo sapiens) of 685 ± 41 µM and an IC50 ([6]; Homo sapiens) of 21 ± 4 µM. The IC50 ([7]; Homo sapiens) was 50 ± 1 µM.

In the case of CN[C@H](C)C(=O)c1ccc(CC(C)C)cc1 [R-IBMCat], the IC50 [1] is reported as 331 ± 19 µM, the IC50 [2] is reported as 49 ± 1 µM and the IC50 [3] is reported as 329 ± 43 µM. The IC50 [4] was 515 ± 34 µM, the IC50 [5] was 698 ± 88 µM and the IC50 [6] was 20 ± 1 µM. It also gave an IC50 [7] of 52 ± 4 µM.
